{"source": "patent US7872030B2", "about": "“Use of 2-[5-(4-fluorophenyl)-3-pyridylmethylaminomethyl]-chromane and its physiologically acceptable salts” (Merck Patent GmbH, priority 2001, dated 2011)", "origin": "cited, not measured here", "tested_on": "advanced Parkinson patients", "conditions": "cited from earlier work"}
{"smiles": "O=C1CC2(CCCC2)CC(=O)N1CCCCN1CCN(c2ncccn2)CC1", "note": "[buspirone]", "values": [{"measurement": "anti-dyskinetic properties", "result": "moderate anti-dyskinetic properties"}]}
